The source of these data is patent US8952024B2, “Herbicidal pyrimidone derivatives” (E I du Pont de Nemours and Company, priority 2009, dated 2015).

What all share (type): in vivo
In assay [1] the test system is naked crabgrass (Digitaria nuda). Kind of assay: Test D pre-/postemergence plant response. Summed up: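 Scores (0 no effect, 100 complete control) reflect visual assessment against untreated plants after 14 to 21 days. Treatments were pre- and postemergence sprays in solvent with surfactant.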
Assay [2] relates to buckwheat (wild buckwheat, Polygonum convolvulus). Kind of assay: Test C plant response. The conditions noted are these: Postemergence, scale 0 to 100. Summed up: (§1)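 Test chemicals were applied in a non-phytotoxic solvent mixture containing a surfactant. After 14 days in a controlled growth environment, injury was rated visually against untreated controls on a 0–100 scale (0 no effect, 100 complete control).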

Assay [3] concerns field poppy (Papaver rhoeas). The experiment in a line: Test C plant response. The conditions noted are these: Postemergence, scale 0 to 100. Summed up:
as §1

Assay [4] relates to spring wheat (Triticum aestivum). Kind of assay: Test C plant response. The conditions noted are these: Postemergence, scale 0 to 100. Summed up: as §1
Assay [5] concerns Russian thistle (Salsola iberica). The experiment in a line: Test C plant response. As to conditions: Postemergence, scale 0 to 100. Summed up: as §1
The subject of assay [6] is wild mustard (Sinapis arvensis). Kind of assay: Test C plant response. The conditions noted are these: Postemergence, scale 0 to 100. Summed up:
as §1

Assay [7] has as its system galium (catchweed bedstraw, Galium aparine). Kind of assay: Test C plant response. As to conditions: Postemergence, scale 0 to 100. Summed up: as §1
Assay [8] relates to bromegrass (downy bromegrass, Bromus tectorum). Kind of assay: Test C plant response. As to conditions: Postemergence, scale 0 to 100. Summed up:
as §1

In assay [9] the test system is wild radish (Raphanus raphanistrum). Kind of assay: Test C plant response. The conditions noted are these: Postemergence, scale 0 to 100. Summed up: as §1
Another assay concerns wild oat (Avena fatua). The experiment in a line: Test C plant response. The conditions noted are these: Postemergence, scale 0 to 100. Summed up:
as §1

For assay [10], the system named is winter barley (Hordeum vulgare). Kind of assay: Test C plant response. As to conditions: Postemergence, scale 0 to 100. Summed up:
as §1

The subject of assay [11] is green foxtail (Setaria viridis). The experiment in a line: Test C plant response. The conditions noted are these: Postemergence, scale 0 to 100. Summed up: as §1
For assay [12], the system named is chickweed (common chickweed, Stellaria media). Kind of assay: Test C plant response. The conditions noted are these: Postemergence, scale 0 to 100. Summed up:
as §1

Assay [13] relates to spring barley (Hordeum vulgare). Kind of assay: Test C plant response. The conditions noted are these: Postemergence, scale 0 to 100. Summed up:
as §1

For assay [14], the system named is winter wheat (Triticum aestivum). The experiment in a line: Test C plant response. The conditions noted are these: Postemergence, scale 0 to 100. Summed up:
as §1

The mark [15] stands for this setting: Postemergence, 31 g ai/ha, scale 0 to 100.
Where [16] appears, read: Postemergence, 62 g ai/ha, scale 0 to 100 (0 no effect, 100 complete control).
Where [17] appears, read: Postemergence, 125 g ai/ha, scale 0 to 100 (0 no effect, 100 complete control).
Where [18] appears, read: Postemergence, 16 g ai/ha, scale 0 to 100.
Where [19] appears, read: Preemergence, 16 g ai/ha, scale 0 to 100, 0 no effect, 100 complete control.
[20] abbreviates: Preemergence, 31 g ai/ha, scale 0 to 100 (0 no effect, 100 complete control).
Where [21] appears, read: Preemergence, 62 g ai/ha, scale 0 to 100.
The mark [22] stands for this setting: Preemergence, 125 g ai/ha, scale 0 to 100.

Structures are written as SMILES.

For `O=C1CCCC(O)=C1C(=O)c1cnc(-c2ccccc2)n(CC2CCCO2)c1=O` (stereo not shown) [Compound 59], the “Plant response rating, Crabgrass, Naked” value in [1] (setting [15]) turned out to be 30; in assay [1] (setting [16]), 50; in [1] (setting [17]), 70; in [1] (setting [18]) it was 20; in assay [1] (setting [19]) it was 0; in assay [1] (setting [20]), 0. Besides, the figures for the “Plant response rating, Crabgrass, Naked” value in assay [1] (setting [21]) and in assay [1] (setting [22]) were 65 and 95, respectively.
As for `Cc1cc(C)cc(-n2c(-c3ccccc3)ncc(C(=O)C3=C(O)CCCC3=O)c2=O)c1` [Compound 33], the “Plant response rating: Buckwheat, Wild” value in assay [2] (31 g ai/ha) is 65; in assay [2] (16 g ai/ha), 60; in [2] (62 g ai/ha) it was 75; in assay [2] (125 g ai/ha), 75. Also, the “Plant response rating: Field Poppy” value in assay [3] (31 g ai/ha) came out at 80; in [3] (16 g ai/ha), 80; in assay [3] (62 g ai/ha) it was 90; in assay [3] (125 g ai/ha) it was 98. Moreover, the “Plant response rating: Wheat, Spring” value in assay [4] (31 g ai/ha), in assay [4] (16 g ai/ha), in assay [4] (62 g ai/ha) and in assay [4] (125 g ai/ha) was 10 each time. Also, the “Plant response rating: Russian Thistle” value worked out at 80 in assay [5] (31 g ai/ha), 80 in [5] (16 g ai/ha), 90 in assay [5] (62 g ai/ha) and 90 in assay [5] (125 g ai/ha). Also, the “Plant response rating: Mustard, Wild” value in assay [6] (31 g ai/ha) is recorded as 98; in assay [6] (16 g ai/ha), 98; in assay [6] (62 g ai/ha) it was 98; in [6] (125 g ai/ha) it was 100. Also, the “Plant response rating: Galium” value in assay [7] (31 g ai/ha) came to 40; in assay [7] (16 g ai/ha), 35; in assay [7] (62 g ai/ha) it was 50; in assay [7] (125 g ai/ha), 60. Further, the “Plant response rating: Bromegrass, Downy” value in [8] (31 g ai/ha) worked out at 10; in assay [8] (16 g ai/ha), 0; in [8] (62 g ai/ha) it was 15; in assay [8] (125 g ai/ha) it was 20. Further, the “Plant response rating: Radish, Wild” value in assay [9] (31 g ai/ha) is given as 95; in [9] (16 g ai/ha), 90; in [9] (62 g ai/ha) it was 95; in assay [9] (125 g ai/ha), 98. The “Plant response rating: Oat, Wild” value in the assay with wild oat (Avena fatua) (31 g ai/ha) was 0; in the assay with wild oat (Avena fatua) (16 g ai/ha), 0; with wild oat (Avena fatua) (62 g ai/ha), 5; with wild oat (Avena fatua) (125 g ai/ha), 10. Further, the “Plant response rating: Barley, Winter” value in assay [10] (31 g ai/ha) was found to be 0; in assay [10] (16 g ai/ha), 0; in assay [10] (62 g ai/ha), 0; in assay [10] (125 g ai/ha), 5. Moreover, the “Plant response rating: Foxtail, Green” value in [11] (31 g ai/ha) is 95; in [11] (16 g ai/ha) it was 80; in [11] (62 g ai/ha) it was 95; in assay [11] (125 g ai/ha) it was 95. Also, the “Plant response rating: Chickweed” value in [12] (31 g ai/ha) was 90; in assay [12] (16 g ai/ha) it was 90; in assay [12] (62 g ai/ha), 98; in assay [12] (125 g ai/ha), 100. Also, the “Plant response rating: Barley, Spring” value in assay [13] (31 g ai/ha), in assay [13] (16 g ai/ha), in assay [13] (62 g ai/ha) and in [13] (125 g ai/ha) was 0 each time. The “Plant response rating: Wheat, Winter” value is listed as 0 in [14] (31 g ai/ha), 0 in assay [14] (16 g ai/ha), 5 in assay [14] (62 g ai/ha) and 5 in [14] (125 g ai/ha).
In the case of `COCCn1c(-c2cccc(C)c2)ncc(C(=O)C2=C(O)C3CCC(C3)C2=O)c1=O` (stereo not shown) [Compound 233], the “Plant response rating, Crabgrass, Naked” value in assay [1] (setting [15]) came to 50; in [1] (setting [16]), 60; in assay [1] (setting [17]), 70; in assay [1] (setting [18]), 30; in assay [1] (setting [19]), 0; in assay [1] (setting [20]), 0. Also, the “Plant response rating, Crabgrass, Naked” value in [1] (setting [21]) and in [1] (setting [22]) was 65 in each case.
As to `Cc1ccccc1-n1c(-c2ccccc2)ncc(C(=O)C2=C(O)CCCC2=O)c1=O` [Compound 12], the “Plant response rating: Buckwheat, Wild” value in [2] (31 g ai/ha) was found to be 15; in assay [2] (16 g ai/ha) it was 10; in assay [2] (62 g ai/ha) it was 50; in assay [2] (125 g ai/ha), 50. Also, the “Plant response rating: Wheat, Spring” value in assay [4] (31 g ai/ha), in assay [4] (16 g ai/ha), in assay [4] (62 g ai/ha) and in [4] (125 g ai/ha) was 0 throughout. Moreover, the “Plant response rating: Russian Thistle” value came out at 60 in assay [5] (31 g ai/ha), 60 in [5] (16 g ai/ha), 60 in assay [5] (62 g ai/ha) and 70 in assay [5] (125 g ai/ha). Moreover, the “Plant response rating: Mustard, Wild” value in [6] (31 g ai/ha) worked out at 95; in assay [6] (16 g ai/ha), 80; in [6] (62 g ai/ha), 95; in [6] (125 g ai/ha), 95. Further, the “Plant response rating: Galium” value in [7] (31 g ai/ha) was determined as 50; in assay [7] (16 g ai/ha), 5; in assay [7] (62 g ai/ha) it was 60; in [7] (125 g ai/ha) it was 80. The “Plant response rating: Bromegrass, Downy” value in assay [8] (31 g ai/ha) came to 10; in [8] (16 g ai/ha) it was 0; in assay [8] (62 g ai/ha), 15; in [8] (125 g ai/ha), 20. Further, the “Plant response rating: Radish, Wild” value in [9] (31 g ai/ha) amounted to 80; in [9] (16 g ai/ha), 60; in [9] (62 g ai/ha) it was 90; in assay [9] (125 g ai/ha), 90. For the same molecule, the “Plant response rating: Oat, Wild” value with wild oat (Avena fatua) (31 g ai/ha) is recorded as 15; with wild oat (Avena fatua) (16 g ai/ha), 0; with wild oat (Avena fatua) (62 g ai/ha), 15; in the assay with wild oat (Avena fatua) (125 g ai/ha), 15. For the same molecule, the “Plant response rating: Barley, Winter” value in [10] (31 g ai/ha), in [10] (16 g ai/ha), in assay [10] (62 g ai/ha) and in [10] (125 g ai/ha) was 0 each time. The “Plant response rating: Foxtail, Green” value in [11] (31 g ai/ha) stood at 60; in assay [11] (16 g ai/ha), 50; in [11] (62 g ai/ha), 80; in assay [11] (125 g ai/ha) it was 90. For the same molecule, the “Plant response rating: Barley, Spring” value in assay [13] (31 g ai/ha), in [13] (16 g ai/ha), in [13] (62 g ai/ha) and in assay [13] (125 g ai/ha) was 0 in each case. Further, the “Plant response rating: Wheat, Winter” value is recorded as 0 in [14] (31 g ai/ha), 0 in assay [14] (16 g ai/ha), 0 in assay [14] (62 g ai/ha) and 10 in [14] (125 g ai/ha).
Regarding `COCCn1c(-c2cc(F)cc(F)c2)ncc(C(=O)C2=C(O)C3CCC(C3)C2=O)c1=O` (stereo not shown) [Compound 243, 2-(3,5-difluorophenyl)-5-[(2-hydroxy-4-oxobicyclo[3.2.1]oct-2-en-3-yl)carbonyl]-3-(2-methoxyethyl)-4(3H)-pyrimidinone], the “Plant response rating, Crabgrass, Naked” value in [1] (setting [21]) amounted to 100; in [1] (setting [22]), 100; in assay [1] (Preemergence, 250 g ai/ha, scale 0 to 100) it was 100.
With `COCCn1c(-c2ccccc2)ncc(C(=O)C2=C(O)CCCC2=O)c1=O` [Compound 85], the “Plant response rating, Crabgrass, Naked” value came out at 50 in assay [1] (setting [15]); 75 in assay [1] (setting [16]); 80 in [1] (setting [17]); 0 in [1] (setting [19]); 95 in assay [1] (setting [20]); 95 in assay [1] (setting [21]). For the same molecule, the “Plant response rating, Crabgrass, Naked” value in assay [1] (setting [22]) amounted to 98.
